Measurements published in patent US20160007597A1, “TREATING AGENT FOR PLANT CELL WALLS, SUBSTANCE DELIVERY METHOD USING TREATING AGENT, AND SUBSTANCE DELIVERY SYSTEM” (SUNTORY HOLDINGS LIMITED, priority 2013, published 2016).
Like-named read-outs stand apart in the source and are kept apart here.

Columns and labels:
onion epidermal cells = test: Cell wall permeability: intracellular uptake of GFP or GFP-FT in onion bulb epidermal cells after trypsin treatment (fluorescence microscopy); assay type: cell-based; conditions: 0.1 mg GFP, 20 μM R9 peptide
Method: Various test solutions containing a fluorescent protein, GFP or GFP-FT, and the R9 peptide were prepared and applied to onion bulbs for verification of GFP uptake. The ingredients of the test solutions verified are shown below:
salt (NaCl), acidic buffer (citric acid), organic solvent (toluene, ethanol), cell wall lyase (pectolyase), surfactant (saponin, Silwet L-77, Tween 20, Triton X-100, CHAPS, CTAB, SDS), chelator (EGTA, EDTA, CDTA, BAPTA), DMSO, and glycerol.
Onion bulbs were cut into boat-shaped pieces, and test solutions (100 μl each) prepared at various concentration conditions (0.1× PBS, 1 to 100 mM chelator, 0.005% to 0.05% surfactant, 0.1 mg GFP, 20 μM R9 peptide) were applied to their surface. Each sample was allowed to stand in a dish at room temperature for 12 hours while being kept under humid conditions. Then, the test solutions were removed and the samples were washed with distilled water. After a 0.25% trypsin solution was applied in 100 μl volumes, the samples were allowed to stand for 30 minutes. After removal of the trypsin solution, the samples were washed with distilled water and their epidermal cell layers were peeled to prepare specimens, which were then observed for intracellular uptake of GFP under a fluorescence microscope (Leica, DM6000B).

leaves = test system: leaves
Method: To verify the migration of the FT protein applied to leaves, the shoot apex after application was sampled and analyzed by Western blotting in an attempt to detect the FT protein. To ensure long-term application to leaves, concentration studies were conducted for EDTA.

[1] = test system: torenia bud cuttings (shoot apex); test: Migration of FT protein applied to leaves to the shoot apex, detected by Western blotting; assay type: in vivo; conditions: Condition 3: FT protein, 20 μM R9 peptide, 0.1× PBS, 1 mM EDTA, 0.005% Silwet L-77, applied to leaves twice; sampled one week after the first application
Method: Bud cuttings were prepared from torenia's branches each including the shoot apex. These branches were cut to an even length of approximately 10 cm containing three nodes or so, each of which was put into a 5 ml tube containing 4 ml of 0.1× PBS, followed by covering the mouth of each tube with a parafilm to avoid evaporation of PBS. Four bud cuttings were prepared for each test group, and test solutions (90 μl each) prepared under three conditions (Condition 1: 0.1× PBS, 1 mM EDTA, 0.005% Silwet L-77; Condition 2: 33 μg/ml FT protein, 0.1× PBS, 1 mM EDTA, 0.005% Silwet L-77; Condition 3: FT protein, 20 μM R9 peptide, 0.1× PBS, 1 mM EDTA, 0.005% Silwet L-77) were applied by being spread thinly over leaves at a position which was two nodes (about 3 cm) apart from the shoot apex. After air drying, these samples were maintained at 25° C. in a thermostatic incubator.
After 3 days, the test solutions were applied again, and after one week of the first application, the shoot apexes were sampled. Proteins were extracted from the shoot apex samples by the acetone method. 250 μl of an extraction buffer (10 mM Tris-HCl (pH 8.0), 0.1% CHAPS, 4.5 mM NaCl, 0.1 mM DTT, 0.2 mM EDTA, complete ULTRA1 tablets (Roche Diagnostics)) was added to each shoot apex sample obtained from 4 bud cuttings, followed by sufficient homogenization in a mixer together with zirconia beads of 4 mm diameter. […]

[2] = test system: in vitro shoots of torenia; test: Induction of flower buds in in vitro shoots of torenia; assay type: in vivo; conditions: torenia in test tubes; 33 μg/ml FT protein, 20 μM R9 peptide, 0.1× PBS, 1 mM EDTA, 0.005% Silwet L-77; applied five times every 2 to 3 days
Method: (§1) In most cases, in vitro shoots of torenia will form no flower buds in test tubes. Likewise, in vitro shoots of petunia will form no flower buds under short-day conditions. In these in vitro shoots, the FT protein was applied to their leaf surface in an attempt to induce flower buds. To the shoot apex and leaf surface of torenia and petunia cultivated in test tubes, a test solution (33 μg/ml FT protein, 20 μM R9 peptide, 0.1× PBS, 1 mM EDTA, 0.005% Silwet L-77) was applied by being spread thinly to ensure a uniform distribution. Application was repeated five times every 2 to 3 days, and culture was also continued thereafter. As a result, flower buds were formed at around 40 days after application and eventually brought into flower in test tubes (FIG. 4).

[3] = test system: in vitro shoots of petunia; test: Induction of flower buds in in vitro shoots of petunia; assay type: in vivo; conditions: petunia in test tubes; 33 μg/ml FT protein, 20 μM R9 peptide, 0.1× PBS, 1 mM EDTA, 0.005% Silwet L-77; applied five times every 2 to 3 days
Method: as §1

protoplasts of torenia = test: GFP uptake into torenia protoplasts in the presence of R9 peptide (fluorescence microscopy); assay type: cell-based; conditions: 0.1 mg GFP
Method: To verify that the R9 peptide was also evenly effective for plant cells other than cultured cells, protoplasts of torenia were used and observed for their uptake of green fluorescent protein (GFP) in the presence of the R9 peptide. Torenia leaves (0.5 g) were treated in an enzyme solution (1% Onozuka RS, 0.1% pectolyase Y-23, 0.45 M mannitol) at 30° C. for 2 hours to prepare protoplasts. The protoplasts were washed with 0.45 M mannitol and then divided into 50 μl aliquots, followed by centrifugation to prepare protoplasts. The protoplasts were each suspended in 50 μl of a buffer (0.45 M mannitol, 1× PBS, 0.1 mg GFP, (0, 20, 200 μM) R9 peptide) and observed for intracellular migration of GFP under a fluorescence microscope (FIG. 1).

[4] = combination of 1 to 50 mM EDTA or EGTA and 0.005% to 0.01% Silwet L-77 or Tween 20, 12 hours

O=C(O)CN(CCN(CC(=O)O)CC(=O)O)CC(=O)O [EDTA, ethylenediaminetetraacetic acid]
intracellular GFP fluorescence after trypsin treatment (onion epidermal cells; [4]): granular GFP fluorescence was strongly observed
damage to leaves (leaves; 1 mM EDTA): able to be used without any problems
damage to leaves (leaves; 100 mM EDTA): cause damage to leaves

O=C(O)CN(CCOCCOCCN(CC(=O)O)CC(=O)O)CC(=O)O [EGTA, O,O′-bis(2-aminoethyl)ethylene glycol-N,N,N′,N′-tetraacetic acid]
intracellular GFP fluorescence after trypsin treatment (onion epidermal cells; [4]): granular GFP fluorescence was strongly observed

FT protein: FLOWERING LOCUS T protein, promoter for flowering in whole plants (florigen)
FT protein signal in the shoot apex (Western blotting) [1]: FT protein signals were able to be detected in the shoot apex
time of flower bud formation after application [2]: around 40 days
time of flower bud formation after application [3]: around 40 days

R9 peptide: cell penetrating peptide composed of 9 arginine residues (RRRRRRRRR)
number of cells showing GFP uptake with increase in R9 peptide concentration (protoplasts of torenia; 0, 20, 200 μM R9 peptide): cells showing GFP uptake were confirmed to increase in number
GFP uptake into protoplasts (protoplasts of torenia; 200 μM R9 peptide, 0.45 M mannitol, 1× PBS): good GFP uptake was observed
intracellular GFP fluorescence after trypsin treatment (onion epidermal cells; chelator-free and surfactant-free test solution, 12 hours at room temperature): no fluorescence was observed within the cells

polyoxyethylene sorbitan monolaurate [Tween 20]
intracellular GFP fluorescence after trypsin treatment (onion epidermal cells; [4]): granular GFP fluorescence was strongly observed
